One assay deals with T1, Chk1 (Homo sapiens, UniProt O14757).
T1 construct: purchased Upstate Biotechnology
T1 sequence (O14757 1-476): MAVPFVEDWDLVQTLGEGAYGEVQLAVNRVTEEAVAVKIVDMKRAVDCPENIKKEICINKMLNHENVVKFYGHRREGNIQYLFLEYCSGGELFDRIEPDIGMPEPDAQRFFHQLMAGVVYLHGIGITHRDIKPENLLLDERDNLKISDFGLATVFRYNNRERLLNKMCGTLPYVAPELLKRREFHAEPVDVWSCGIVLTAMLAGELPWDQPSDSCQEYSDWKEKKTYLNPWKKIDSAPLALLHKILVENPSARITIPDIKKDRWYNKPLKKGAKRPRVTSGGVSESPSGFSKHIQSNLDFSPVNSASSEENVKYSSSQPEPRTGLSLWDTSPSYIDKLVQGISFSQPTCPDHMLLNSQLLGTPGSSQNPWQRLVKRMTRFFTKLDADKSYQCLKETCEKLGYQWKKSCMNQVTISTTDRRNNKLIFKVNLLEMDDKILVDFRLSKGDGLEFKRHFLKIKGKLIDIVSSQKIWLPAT
In words: Chk1 kinase assay: incorporation of γ-33P ATP into immobilized myelin basic protein. In kind it is biochemical. Particulars: Table 11, Chk1 only; class symbols A-D; read-out: Chk1 IC50. In short, it runs like this: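 Immobilized-MBP radiometric kinase assay, room temperature for 1 h; ATP 10 μM (Chk1, 10 nM enzyme) or 30 μM (Chk2, 20 nM enzyme) with 33P tracer. Values are IC50s, with Ki derived from them.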
In the case of `Nc1ncc(-c2cccc(C(=O)NCc3cc(Cl)ccc3F)c2)nc1C(=O)N[C@H]1CCCNC1` [Example 862, 3-amino-6-[3-({[(5-chloro-2-fluorophenyl)methyl]amino}carbonyl)phenyl]-N-[(3S)-piperidin-3-yl]pyrazine-2-carboxamide], the IC50 was under 50 nM.

As to `Cc1cc(Cl)ccc1CNC(=O)c1cccc(-c2cnc(N)c(C(=O)N[C@H]3CCCNC3)n2)c1` [Example 857, 3-amino-6-[3-({[(4-chloro-2-methylphenyl)methyl]amino}carbonyl)phenyl]-N-[(3S)-piperidin-3-yl]pyrazine-2-carboxamide], the IC50 was under 50 nM.

As for `Nc1ncc(-c2cccc(CNC(=O)C3COc4ccccc4O3)c2)nc1C(=O)N[C@H]1CCCNC1` (stereo partly drawn) [Example 939, 3-amino-6-(3-{[(2,3-dihydro-1,4-benzodioxin-2-ylcarbonyl)amino]methyl}phenyl)-N-[(3S)-piperidin-3-yl]pyrazine-2-carboxamide], the IC50 was under 50 nM.

On to `Nc1ncc(-c2cccc(C(=O)NCc3cc(F)cc(F)c3F)c2)nc1C(=O)N[C@H]1CCCNC1` [Example 1030, 3-amino-N-[(3S)-piperidin-3-yl]-6-[3-({[(2,3,5-trifluorophenyl)methyl]amino}carbonyl)phenyl]pyrazine-2-carboxamide], for which the IC50 was under 50 nM.

Take `Nc1ncc(-c2cccc(C(=O)NCc3ccc(F)c(Br)c3)c2)nc1C(=O)N[C@H]1CCNC1` [Example 817, 3-amino-6-[3-({[(3-bromo-4-fluorophenyl)methyl]amino}carbonyl)phenyl]-N-[(3S)-pyrrolidin-3-yl]pyrazine-2-carboxamide]: the IC50 is under 50 nM.

Consider `Nc1ncc(-c2cccc(NC(=O)c3cc(-c4ccc(Cl)cc4)cs3)c2)nc1C(=O)N[C@H]1CCCNC1` [Example 891, 3-amino-6-[3-({[4-(4-chlorophenyl)-2-thienyl]carbonyl}amino)phenyl]-N-[(3S)-piperidin-3-yl]pyrazine-2-carboxamide], for which the IC50 was under 50 nM.

On to `Nc1ncc(-c2cccc(C(=O)NCc3c(F)ccc(F)c3F)c2)nc1C(=O)N[C@H]1CCCNC1` [Example 1004, 3-amino-N-[(3S)-piperidin-3-yl]-6-[3-({[(2,3,6-trifluorophenyl)methyl]amino}carbonyl)phenyl]pyrazine-2-carboxamide], for which the IC50 was under 50 nM.

With `Nc1ncc(-c2cccc(C(=O)NCc3cccc(F)c3F)c2)nc1C(=O)N[C@H]1CCCCNC1` [Example 1007, 3-amino-N-[(3S)-azepan-3-yl]-6-[3-({[(2,3-difluorophenyl)methyl]amino}carbonyl)phenyl]pyrazine-2-carboxamide], the IC50 is under 50 nM.

On to `COc1ccc(CNC(=O)c2cccc(-c3cnc(N)c(C(=O)N[C@H]4CCCNC4)n3)c2)cc1` [Example 831, 3-amino-6-{3-[({[4-(methyloxy)phenyl]methyl}amino)carbonyl]phenyl}-N-[(3S)-piperidin-3-yl]pyrazine-2-carboxamide], for which the IC50 is under 50 nM.

Regarding `Nc1ncc(-c2cccc(CNC(=O)c3csc(-c4cccs4)n3)c2)nc1C(=O)N[C@H]1CCCNC1` [Example 948, 3-amino-N-[(3S)-piperidin-3-yl]-6-{3-[({[2-(2-thienyl)-1,3-thiazol-4-yl]carbonyl}amino)methyl]phenyl}pyrazine-2-carboxamide], the concentration for half-maximal inhibition (IC50) is under 50 nM.

Still in this assay, the particulars now being: Table 11; Chk1 only; read-out: Chk1 IC50.
For `CNC(=O)c1nc(-c2cccc(CN[C@H]3CCc4cc(F)cc(F)c43)c2)cnc1N` [Example 483, 3-amino-6-[3-({[(1S)-5,7-difluoro-2,3-dihydro-1H-inden-1-yl]amino}methyl)phenyl]-N-methylpyrazine-2-carboxamide], the IC50 is 50 to 1000 nM.

As for `CN(C)c1nccc(-c2nc(-c3cccc(C(=O)NCc4ccccc4)c3)cnc2N)n1` [Example 609, 3-{5-amino-6-[2-(dimethylamino)pyrimidin-4-yl]pyrazin-2-yl}-N-(phenylmethyl)benzamide], the half-maximal inhibitory concentration (IC50) is at least 10000 nM.

As for `CCN1CCCC(c2nnc(-c3nc(-c4cccc(CN[C@H]5CCc6ccccc65)c4)cnc3N)[nH]2)C1` (stereo partly drawn) [Example 733, 5-(3-{[(1S)-2,3-dihydro-1H-inden-1-ylamino]methyl}phenyl)-3-[5-(1-ethylpiperidin-3-yl)-4H-1,2,4-triazol-3-yl]pyrazin-2-amine], the IC50 is 50 to 1000 nM.

In the case of `CC(=O)NCCCNC(=O)c1nc(-c2cccc(C(=O)NCc3ccccc3)c2)cnc1N` [Example 647, N-[3-(acetylamino)propyl]-3-amino-6-(3-{[(phenylmethyl)amino]carbonyl}phenyl)pyrazine-2-carboxamide], the IC50 lay in the range of 1000 to 10000 nM.

Take `CNC(=O)c1nc(-c2cccc(CNC3Cc4c(F)cccc4C3O)c2)cnc1N` (stereo not drawn) [Example 467, 3-amino-6-(3-{[(4-fluoro-1-hydroxy-2,3-dihydro-1H-inden-2-yl)amino]methyl}phenyl)-N-methylpyrazine-2-carboxamide]: the IC50 lay within 50 to 1000 nM.

Consider `CNC(=O)c1nc(-c2cc(C(=O)N[C@H]3CCc4ccccc43)cc(C(=O)OC)c2)cnc1N` [Example 790, methyl 3-{5-amino-6-[(methylamino)carbonyl]pyrazin-2-yl}-5-{[(1S)-2,3-dihydro-1H-inden-1-ylamino]carbonyl}benzoate], for which the IC50 fell in the range of 50 to 1000 nM.

For `Nc1ncc(-c2cccc(CO)c2)nc1-c1nc(-c2ccccn2)n[nH]1` [Example 682, {3-[5-amino-6-(3-pyridin-2-yl-1H-1,2,4-triazol-5-yl)pyrazin-2-yl]phenyl}methanol], the IC50 is 1000 to 10000 nM.

For the molecule `CNC(=O)c1nc(-c2cccc(CN[C@H]3CCCc4ccccc43)c2)cnc1N` [Example 436, 3-amino-N-methyl-6-(3-{[(1S)-1,2,3,4-tetrahydronaphthalen-1-ylamino]methyl}phenyl)pyrazine-2-carboxamide], the IC50 is under 50 nM.

With `CCN1CCCC(c2nnc(-c3nc(-c4cccc(CO)c4)cnc3N)[nH]2)C1` (stereo not drawn) [Example 732, (3-{5-amino-6-[5-(1-ethylpiperidin-3-yl)-4H-1,2,4-triazol-3-yl]pyrazin-2-yl}phenyl)methanol], the IC50 lay within 1000 to 10000 nM.

Take `Nc1ncc(-c2cccc(CNC3CCc4ccccc43)c2)nc1C(=O)NC1CCCCC1` (stereo not drawn) [Example 533, 3-amino-N-cyclohexyl-6-{3-[(2,3-dihydro-1H-inden-1-ylamino)methyl]phenyl}pyrazine-2-carboxamide]: the half-inhibitory concentration (IC50) was 1000 to 10000 nM.

The same assay, now with this note: read-out: Chk1 IC50.
Consider `Nc1ncc(-c2ccccc2)nc1C(=O)NC1CCCCC1` [Example 14, 3-amino-N-cyclohexyl-6-phenylpyrazine-2-carboxamide], for which the IC50 was at least 10000 nM.

For `CNC(=O)c1nc(-c2cccc(NCc3ccccc3)c2)cnc1N` [Example 372, 3-amino-N-methyl-6-{3-[(phenylmethyl)amino]phenyl}pyrazine-2-carboxamide], the concentration for half-maximal inhibition (IC50) was 50 to 1000 nM.

For the molecule `CNC(=O)c1nc(-c2cccc(C(=O)NCc3cc(Cl)cc(Cl)c3)c2)cnc1N` [Example 276, 3-amino-6-[3-({[(3,5-dichlorophenyl)methyl]amino}carbonyl)phenyl]-N-methylpyrazine-2-carboxamide], the IC50 fell in the range of 50 to 1000 nM.

On to `CNC(=O)c1nc(-c2cccc(C(=O)N[C@@H]3c4ccccc4C[C@@H]3O)c2)cnc1N` [Example 140, 3-amino-6-[3-({[(1R,2S)-2-hydroxy-2,3-dihydro-1H-inden-1-yl]amino}carbonyl)phenyl]-N-methylpyrazine-2-carboxamide], for which the half-maximal inhibitory concentration (IC50) lay in the range of 50 to 1000 nM.

On to `CNC(=O)c1nc(-c2cccc(C(=O)N[C@H](C)c3ccc(OC)cc3)c2)cnc1N` [Example 108, 3-amino-N-methyl-6-{3-[({(1R)-1-[4-(methyloxy)phenyl]ethyl}amino)carbonyl]phenyl}pyrazine-2-carboxamide], for which the IC50 was 1000 to 10000 nM.

As to `CNC(=O)c1nc(-c2cccc(C(=O)N[C@@H]3CCN(C(=O)OC(C)(C)C)C3)c2)cnc1N` [Example 357, 1,1-dimethylethyl (3R)-3-{[(3-{5-amino-6-[(methylamino)carbonyl]pyrazin-2-yl}phenyl)carbonyl]amino}pyrrolidine-1-carboxylate], the half-maximal inhibitory concentration (IC50) was 1000 to 10000 nM.

Turning to `CNC(=O)c1nc(-c2cccc(C(=O)N[C@@H]3CCCc4ccccc43)c2)cnc1N` [Example 160, 3-amino-N-methyl-6-(3-{[(1R)-1,2,3,4-tetrahydronaphthalen-1-ylamino]carbonyl}phenyl)pyrazine-2-carboxamide], the half-inhibitory concentration (IC50) was in the range of 1000 to 10000 nM.

On to `CNC(=O)c1nc(-c2cccc(C(=O)NCc3ccccn3)c2)cnc1N` [Example 121, 3-amino-N-methyl-6-(3-{[(pyridin-2-ylmethyl)amino]carbonyl}phenyl)pyrazine-2-carboxamide], for which the IC50 was 50 to 1000 nM.

As to `CNC(=O)c1nc(-c2cccc(C(=O)N[C@H]3c4ccccc4C[C@H]3O)c2)cnc1N` [Example 141, 3-amino-6-[3-({[(1S,2R)-2-hydroxy-2,3-dihydro-1H-inden-1-yl]amino}carbonyl)phenyl]-N-methylpyrazine-2-carboxamide], the IC50 was 1000 to 10000 nM.

Consider `CNC(=O)c1nc(-c2ccc(NS(C)(=O)=O)cc2)cnc1N` [Example 77, 3-amino-N-methyl-6-{4-[(methylsulfonyl)amino]phenyl}pyrazine-2-carboxamide], for which the IC50 was 1000 to 10000 nM.

As a reminder, the IC50 is the concentration at which inhibition is half-maximal.
